We go through three compounds from patent publication US20230020320A1, “Liquid Composition for Cleaning, Sanitizing and/or Disinfecting” (CORTICALIS AS, priority 2020, published 2023).

Test [1] deals with non-spore forming bacteria. The conditions noted are these: in less than 30 seconds, in the laboratory and on human skin; cited from earlier work.
For test [2] the following is noted: cited from earlier work.
Test [3] deals with S. epidermidis. The experiment in a line: Regrowth of luciferase-harbouring bacteria on sanitized titanium surfaces, fluorometer. It counts as cell-based. The conditions noted are these: 5 minutes in sanitizing solution; for Time until regrowth of the biofilm after cleaning: then BHI medium at 37 centigrade, hourly reading. How it is done:
Regrowth of S. epidermidis after sanitizing a contaminated titanium surface Regrowth of S. epidermidis bacteria harbouring the luciferase gene making them fluorescent, on sanitized titanium surfaces. Surfaces was first contaminated with bacteria and incubated in BHI broth until the surfaces were completely covered in biofilm. The titanium discs were then submerged in sanitizing solution and left on a slow shaker for 5 minutes. After sanitizing the discs were rinsed in a large volume of sterile water, then covered by BHI medium again and incubated at 37 centigrade. At hourly intervals the discs were placed in a fluorometer to measure regrowth of bacteria by amount of fluorescent as compared to an untreated calibrated control and a sterile disc.

Test [4] concerns S. epidermidis. The experiment in a line: Staining of living and dead bacteria on decontaminated titanium surfaces, confocal microscope. It counts as cell-based. The conditions noted are these: submerged in sanitizing solution 5 minutes on slow shaker. On the procedure: Titanium surfaces contaminated with S. epidermidis bacteria and grown to biofilm in BHI broth was removed from growth medium and submerged in sanitizing solution for 5 minutes on a slow shaker. Discs were sanitized with A) saline (Negative control), B) Chlorhexidine 0.2% w/v, or C) H2O2 3% v/v+f-127 pluronic Acid 5% w/v. After cleaning the surfaces were stained with fluorescent dyes, green for living microbes and red for dead microbes. […] Surfaces were visualized in a confocal microscope after cleaning and staining (FIG. 4).

“Also recorded” adds a separate entry of the source. Where two headings read alike, the source gives them in different places.

In the case of `CC(C)O` [Isopropyl alcohol], the “Non-spore forming bacteria killed” value in test [1] was ≥ 99.99%.
Turning to `OO` [hydrogen peroxide, Hydrogen peroxide], the “Effect on wound healing” value in test [2] (0.03% v/v solution, only if not applied repeatedly) is given as “may induce healing”; in test [2] (0.5% v/v solution) it was “impede healing”. Moreover, the “Time until regrowth of the biofilm after cleaning” value in the test with S. epidermidis [3] was “about 13 hours”.
In the case of `N=C(NCCCCCCNC(=N)NC(=N)Nc1ccc(Cl)cc1)NC(=N)Nc1ccc(Cl)cc1` [Chlorhexidine 0.2% w/v, Chlorhexidine], in the test on S. epidermidis [4], the “Killing of microbes (green living / red dead staining)” value is “killed all microbes; also recorded: killed all bacteria” and the “Removal of biofilm/contamination from titanium surface” value was “left the dead cells to contaminate the surface; also recorded: left them to contaminate the surface”. Besides, in the test on S. epidermidis [3], the “Biofilm remaining on the surface” value was “the dead biofilm stuck and remained on the surface”; the Killing of bacteria entry is reported as “killed all bacteria”; the “Time until regrowth of the biofilm after cleaning” value is on record as “no regrowth observed”.
